Patent US20060264460A1 (Wyeth, priority 2005, published 2006)
Each block holds one molecule with its values, some of them ahead of it.

Biological target: T1, human Cot/Tpl2 kinase (Homo sapiens, UniProt P41279)
T1 construct: human Cot/Tpl2 kinase construct encoding residues 30-398; 6His (N); made in house; host or cells: Sf9 insect cells, baculovirus system (BD Biosciences)
Assay: Tpl2/Cot kinase assay: GST-MEK1 phosphorylation detected by ELISA (DELFIA Eu)
Assay type: biochemical
Method in brief: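 Substrate phosphorylation (GST-MEK1 Ser217/221) quantified by DELFIA europium ELISA, yielding IC50 values. Reaction: 1 h at 30° C, pH 7.2 MOPS buffer, 50 uM ATP, 35 nM GST-MEK1, 0.4 nM monomeric His-Tpl2 purified from Sf9 cells, compounds at 1% final DMSO; stopped with EDTA.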

[1] = Tpl2/Cot kinase, GST-MEK1 substrate, 50 uM ATP, 1 h at 30° C., Table 2
[2] = Tpl2/Cot kinase, GST-MEK1 substrate, 50 uM ATP
[3] = Table 2, Tpl2/Cot kinase, GST-MEK1 substrate, 50 uM ATP
[4] = 0.4 nM Tpl2, 35 nM GST-MEK1, 50 uM ATP, 1 h at 30° C.

T1 sequence (P41279 30-398): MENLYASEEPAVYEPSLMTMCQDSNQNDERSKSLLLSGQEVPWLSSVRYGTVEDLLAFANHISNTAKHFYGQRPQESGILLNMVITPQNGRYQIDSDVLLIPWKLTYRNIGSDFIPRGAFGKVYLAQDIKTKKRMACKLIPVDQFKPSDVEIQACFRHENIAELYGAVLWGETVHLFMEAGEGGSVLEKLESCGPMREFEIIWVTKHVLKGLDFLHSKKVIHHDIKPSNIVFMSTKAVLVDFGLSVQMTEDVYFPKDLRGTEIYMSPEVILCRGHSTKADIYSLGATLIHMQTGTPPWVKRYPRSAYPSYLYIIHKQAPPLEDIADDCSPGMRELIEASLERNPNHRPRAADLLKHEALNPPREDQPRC

IC50 [1]: 0.4 µM
Structure (SMILES): N#Cc1cnc2c(Cl)cc(NCc3cn(C4CCN(CC(F)(F)C(F)F)CC4)nn3)cc2c1Nc1ccc(F)c(Cl)c1 [Example 1018]

IC50 [2]: 0.0035 µM
Structure (SMILES): CN(C)C(=O)OCCCn1cc(CNc2cc(Br)c3ncc(C#N)c(Nc4ccc(F)c(Cl)c4)c3c2)nn1 [Example 752]

IC50 [3]: 0.043 µM
Structure (SMILES): N#Cc1cnc2ccc(N)cc2c1Nc1ccc(Cc2ccccc2)cc1 [Example 390]

IC50 [3]: > 3 µM
Structure (SMILES): Fc1ccc(Nc2ncncc2-c2cccc(NCc3cnc[nH]3)c2)cc1Cl [Example 535]

IC50 [4]: 0.01 µM
Structure (SMILES): N#Cc1cnc2c(Br)cc(NCc3cn(C4CCNCC4)nn3)cc2c1Nc1ccc(F)c(Cl)c1 [Example 316, 8-bromo-4-[(3-chloro-4-fluorophenyl)amino]-6-{[(1-piperidin-4-yl-1H-1,2,3-triazol-4-yl)methyl]amino}quinoline-3-carbonitrile]

IC50 [2]: 0.0007 µM
Structure (SMILES): CC(=O)NCCCn1cc(CNc2cc(Cl)c3ncc(C#N)c(Nc4ccc(F)c(Cl)c4)c3c2)nn1 [Example 910]

IC50 [2]: 0.0061 µM
Structure (SMILES): CC(=O)N1CCC(n2cc(CNc3cc(Br)c4ncc(C#N)c(Nc5ccc(F)c(Cl)c5)c4c3)nn2)CC1 [Example 720]

IC50 [4]: 1.6 µM
Structure (SMILES): N#Cc1cnc2ccc(NCc3cnc[nH]3)cc2c1Nc1cccnc1 [Example 263, 6-[(1H-imidazol-5-ylmethyl)amino]-4-(pyridin-3-ylamino)quinoline-3-carbonitrile]

IC50 [1]: 0.13 µM
Structure (SMILES): N#Cc1cnc2ccc(NCc3cn(C4CCNCC4)nn3)cc2c1NC1CCCCC1 [Example 977]

IC50 [3]: 0.17 µM
Structure (SMILES): Cn1nnnc1CCNc1cc(Cl)c2ncc(C#N)c(Nc3ccc(F)c(Cl)c3)c2c1 [Example 469]

IC50 [4]: > 40 µM
Structure (SMILES): Cn1nc(C(C)(C)C)cc1Nc1c(C#N)cnc2ccc(NCc3cnc[nH]3)cc12 [Example 261, 4-[(3-tert-butyl-1-methyl-1H-pyrazol-5-yl)amino]-6-[(1 H-imidazol-5-ylmethyl)amino]quinoline-3-carbonitrile]

IC50 [4]: 7.4 µM
Structure (SMILES): CN(C)C=Nc1cc(Cl)c2ncc(C#N)c(Nc3ccc(F)c(Cl)c3)c2c1 [Example 206, N′-{8-chloro-4-[(3-chloro-4-fluorophenyl)amino]-3-cyanoquinolin-6-yl}-N,N-dimethylimidoformamide]

IC50 [4]: 2.5 µM
Structure (SMILES): N#Cc1cccc(CNc2ccc3ncc(C#N)c(NC4CCCCCC4)c3c2)c1 [Example 247, 6-[(3-Cyanobenzyl)amino]-4-(cycloheptylamino)quinoline-3-carbonitrile]

IC50 [3]: > 3 µM
Structure (SMILES): CC(C)(C)OC(=O)N1CCC(CCn2cc(CN(Cc3cn(CCC4CCN(C(=O)OC(C)(C)C)CC4)nn3)c3cc(Br)c4ncc(C#N)c(Nc5ccc(F)c(Cl)c5)c4c3)nn2)CC1 [Example 509]

IC50 [2]: 0.88 µM
Structure (SMILES): CS(=O)(=O)NCCNc1cc(Cl)c2ncc(C#N)c(Nc3ccc(F)c(Cl)c3)c2c1 [Example 853]

IC50 [3]: 5.5 µM
Structure (SMILES): Cc1cc(CNc2cc(Br)c3ncc(C#N)c(Nc4ccc(F)c(Cl)c4)c3c2)nn1C [Example 449]

IC50 [2]: 0.17 µM
Structure (SMILES): CC(=O)N(CCNc1cc(Cl)c2ncc(C#N)c(Nc3ccc(F)c(Cl)c3)c2c1)Cc1ccccn1 [Example 846]

IC50 [3]: 0.0048 µM
Structure (SMILES): C=CCn1cnc(CNc2cc(Br)c3ncc(C#N)c(Nc4ccc(F)c(Cl)c4)c3c2)c1 [Example 551]

IC50 [2]: 0.13 µM
Structure (SMILES): N#Cc1cnc2c(Cl)cc(NCc3cn(CCC4CCNCC4)nn3)cc2c1Nc1ccc(F)c(Cl)c1 [Example 692]

IC50 [4]: 8.4 µM
Structure (SMILES): Cc1cc(CNc2cc(C(F)(F)F)c3ncc(C#N)c(Nc4ccc(F)c(Cl)c4)c3c2)oc1C [Example 238, 4-[(3-chloro-4-fluorophenyl)amino]-6-{[(4,5-dimethyl-2-furyl)methyl]amino}-8-(trifluoromethyl)quinoline-3-carbonitrile]

IC50 [3]: > 40 µM
Structure (SMILES): N#Cc1cnc2ccc(NCCN3CCOCC3)cc2c1NC1CCN(Cc2ccccc2)CC1 [Example 367]

IC50 [1]: 0.88 µM
Structure (SMILES): N#Cc1cnc2c(Cl)cc(NCc3cncc(C4=CCNCC4)c3)cc2c1Nc1ccc(F)c(Cl)c1 [Example 1056]

IC50 [3]: > 40 µM
Structure (SMILES): N#Cc1c(Nc2ccc(F)c(Cl)c2)c2cc(NCc3cccc[n+]3[O-])ccc2[nH]c1=O [Example 422]
